Biological target: T1, human PAH with the R408W mutation (A375 R408W cells) (Homo sapiens, UniProt P00439, R408W)
T1 construct: expressed in transfected cells
T1 sequence (P00439 1-452 R408W): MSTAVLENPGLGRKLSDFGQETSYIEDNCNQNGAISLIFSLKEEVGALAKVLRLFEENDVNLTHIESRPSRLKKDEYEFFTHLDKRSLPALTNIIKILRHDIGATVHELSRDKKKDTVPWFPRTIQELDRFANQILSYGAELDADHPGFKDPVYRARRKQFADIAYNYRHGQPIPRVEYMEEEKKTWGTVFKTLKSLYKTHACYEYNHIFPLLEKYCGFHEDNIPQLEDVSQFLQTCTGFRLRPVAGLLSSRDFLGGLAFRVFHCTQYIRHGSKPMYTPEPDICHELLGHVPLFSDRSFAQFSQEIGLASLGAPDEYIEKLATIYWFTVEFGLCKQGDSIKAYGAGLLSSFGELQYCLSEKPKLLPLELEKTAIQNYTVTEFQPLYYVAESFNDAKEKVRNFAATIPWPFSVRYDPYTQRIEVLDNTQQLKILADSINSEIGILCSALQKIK
Test: Cell Based Phenylalanine Flux Assay
Conditions: A375 R408W cells; 24 hrs with compound, then 20 μM sepiapterin and 800 μM 13C9,15N-Phenylalanine for 4 hours; 13C-Tyrosine by LC-MS; average where tested multiple times
Summary of the method: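 A375 cells stably expressing human PAH R408W treated 24 h at 37° C with a 10-point 2-fold dose curve in duplicate, 0.5% DMSO. Then 20 μM sepiapterin and 800 μM 13C9,15N-Phe added for 4 h; 13C-Tyr in media measured by LC-MS to give AC50.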

AC50 | SMILES
1000 to 5000 nM | Cc1ccc2nc([C@H]3c4nc[nH]c4CCN3C(=O)c3oc(C(C)(C)O)nc3Br)oc2c1 [Example 440, (R)-(4-bromo-2-(2-hydroxypropan-2-yl)oxazol-5-yl)(4-(6-methylbenzo[d]oxazol-2-yl)-6,7-dihydro-1H-imidazo[4,5-c]pyridin-5(4H)-yl)methanone]
1000 to 5000 nM | COc1ccc(-c2nnc(C(=O)N3CCc4[nH]cnc4[C@@H]3c3nc4cc(F)ccc4o3)o2)nc1 [Example 441, (R)-(4-(5-fluorobenzo[d]oxazol-2-yl)-6,7-dihydro-1H-imidazo[4,5-c]pyridin-5(4H)-yl)(5-(5-methoxypyridin-2-yl)-1,3,4-oxadiazol-2-yl)methanone]
500 to 1000 nM | COc1ccc(-c2nnc(C(=O)N3CCc4[nH]cnc4[C@H]3c3nc4cc(F)ccc4o3)o2)nc1 [Example 442, (S)-(4-(5-fluorobenzo[d]oxazol-2-yl)-6,7-dihydro-1H-imidazo[4,5-c]pyridin-5(4H)-yl)(5-(5-methoxypyridin-2-yl)-1,3,4-oxadiazol-2-yl)methanone]
500 to 1000 nM | O=C(c1oc(-c2ccc(C(F)(F)F)cn2)nc1C(F)F)N1CCc2[nH]cnc2[C@@H]1c1nc2cc(F)ccc2o1 [Example 443, (R)-(4-(difluoromethyl)-2-(5-(trifluoromethyl)pyridin-2-yl)oxazol-5-yl)(4-(5-fluorobenzo[d]oxazol-2-yl)-6,7-dihydro-1H-imidazo[4,5-c]pyridin-5(4H)-yl)methanone]
≤ 500 nM | O=C(c1oc(-c2ccc(C(F)(F)F)cn2)nc1C(F)F)N1CCc2[nH]cnc2[C@H]1c1nc2cc(F)ccc2o1 [Example 444, (S)-(4-(difluoromethyl)-2-(5-(trifluoromethyl)pyridin-2-yl)oxazol-5-yl)(4-(5-fluorobenzo[d]oxazol-2-yl)-6,7-dihydro-1H-imidazo[4,5-c]pyridin-5(4H)-yl)methanone]
≤ 500 nM | COc1ccc(-c2nc(C(F)F)c(C(=O)N3CCc4[nH]cnc4[C@H]3c3nc4cc(F)ccc4o3)o2)nc1 [Example 445, (S)-(4-(difluoromethyl)-2-(5-methoxypyridin-2-yl)oxazol-5-yl)(4-(5-fluorobenzo[d]oxazol-2-yl)-6,7-dihydro-1H-imidazo[4,5-c]pyridin-5(4H)-yl)methanone]
≤ 500 nM | COc1ccc(-c2nc(C(F)F)c(C(=O)N3CCc4[nH]cnc4[C@@H]3c3nc4cc(F)ccc4o3)o2)nc1 [Example 446, (R)-(4-(difluoromethyl)-2-(5-methoxypyridin-2-yl)oxazol-5-yl)(4-(5-fluorobenzo[d]oxazol-2-yl)-6,7-dihydro-1H-imidazo[4,5-c]pyridin-5(4H)-yl)methanone]
≤ 500 nM | Cc1cccc2oc([C@@H]3c4nc[nH]c4CCN3C(=O)c3nc(C(F)F)nn3C)nc12 [Example 447, (S)-(3-(difluoromethyl)-1-methyl-1H-1,2,4-triazol-5-yl)(4-(4-methylbenzo[d]oxazol-2-yl)-6,7-dihydro-1H-imidazo[4,5-c]pyridin-5(4H)-yl)methanone]
1000 to 5000 nM | Cc1cccc2oc([C@H]3c4nc[nH]c4CCN3C(=O)c3nc(C(F)F)nn3C)nc12 [Example 448, (R)-(3-(difluoromethyl)-1-methyl-1H-1,2,4-triazol-5-yl)(4-(4-methylbenzo[d]oxazol-2-yl)-6,7-dihydro-1H-imidazo[4,5-c]pyridin-5(4H)-yl)methanone]
≤ 500 nM | Cc1cccc2oc([C@@H]3c4nc[nH]c4CCN3C(=O)c3ccnn3C(F)F)nc12 [Example 449, (S)-(1-(difluoromethyl)-1H-pyrazol-5-yl)(4-(4-methylbenzo[d]oxazol-2-yl)-6,7-dihydro-1H-imidazo[4,5-c]pyridin-5(4H)-yl)methanone]
1000 to 5000 nM | Cc1cccc2oc([C@H]3c4nc[nH]c4CCN3C(=O)c3ccnn3C(F)F)nc12 [Example 450, (R)-(1-(difluoromethyl)-1H-pyrazol-5-yl)(4-(4-methylbenzo[d]oxazol-2-yl)-6,7-dihydro-1H-imidazo[4,5-c]pyridin-5(4H)-yl)methanone]
≤ 500 nM | O=C(c1cnn2cc(-c3ccccn3)ccc12)N1CCc2[nH]cnc2[C@H]1c1nc2cccc(F)c2o1 [Example 451, (S)-(4-(7-fluorobenzo[d]oxazol-2-yl)-6,7-dihydro-1H-imidazo[4,5-c]pyridin-5(4H)-yl)(6-(pyridin-2-yl)pyrazolo[1,5-a]pyridin-3-yl)methanone]
1000 to 5000 nM | O=C(c1cnn2cc(-c3ccccn3)ccc12)N1CCc2[nH]cnc2[C@@H]1c1nc2cccc(F)c2o1 [Example 452, (R)-(4-(7-fluorobenzo[d]oxazol-2-yl)-6,7-dihydro-1H-imidazo[4,5-c]pyridin-5(4H)-yl)(6-(pyridin-2-yl)pyrazolo[1,5-a]pyridin-3-yl)methanone]
≤ 500 nM | CC(C)(O)c1nc(C(F)F)c(C(=O)N2CCc3[nH]cnc3[C@H]2c2nc3cccc(C(F)(F)F)c3o2)o1 [Example 453, (S)-(4-(difluoromethyl)-2-(2-hydroxypropan-2-yl)oxazol-5-yl)(4-(7-(trifluoromethyl)benzo[d]oxazol-2-yl)-6,7-dihydro-1H-imidazo[4,5-c]pyridin-5(4H)-yl)methanone]
1000 to 5000 nM | CC(C)(O)c1nc(C(F)F)c(C(=O)N2CCc3[nH]cnc3[C@@H]2c2nc3cccc(C(F)(F)F)c3o2)o1 [Example 454, (R)-(4-(difluoromethyl)-2-(2-hydroxypropan-2-yl)oxazol-5-yl)(4-(7-(trifluoromethyl)benzo[d]oxazol-2-yl)-6,7-dihydro-1H-imidazo[4,5-c]pyridin-5(4H)-yl)methanone]
≤ 500 nM | COc1cccc2nc([C@@H]3c4nc[nH]c4CCN3C(=O)c3oc(C(C)(C)O)nc3C(F)F)oc12 [Example 455, (S)-(4-(difluoromethyl)-2-(2-hydroxypropan-2-yl)oxazol-5-yl)(4-(7-methoxybenzo[d]oxazol-2-yl)-6,7-dihydro-1H-imidazo[4,5-c]pyridin-5(4H)-yl)methanone]
1000 to 5000 nM | COc1cccc2nc([C@H]3c4nc[nH]c4CCN3C(=O)c3oc(C(C)(C)O)nc3C(F)F)oc12 [Example 456, (R)-(4-(difluoromethyl)-2-(2-hydroxypropan-2-yl)oxazol-5-yl)(4-(7-methoxybenzo[d]oxazol-2-yl)-6,7-dihydro-1H-imidazo[4,5-c]pyridin-5(4H)-yl)methanone]
≤ 500 nM | COc1cccc2nc([C@@H]3c4nc[nH]c4CCN3C(=O)c3ocnc3C(F)F)oc12 [Example 457, (S)-(4-(difluoromethyl)oxazol-5-yl)(4-(7-methoxybenzo[d]oxazol-2-yl)-6,7-dihydro-1H-imidazo[4,5-c]pyridin-5(4H)-yl)methanone]
≤ 500 nM | COc1cccc2nc([C@H]3c4nc[nH]c4CCN3C(=O)c3ocnc3C(F)F)oc12 [Example 458, (R)-(4-(difluoromethyl)oxazol-5-yl)(4-(7-methoxybenzo[d]oxazol-2-yl)-6,7-dihydro-1H-imidazo[4,5-c]pyridin-5(4H)-yl)methanone]
≤ 500 nM | CC(C)(O)c1nc(C(F)F)c(C(=O)N2CCc3[nH]cnc3[C@@H]2c2nc3cccc(Br)c3o2)o1 [Example 459, (R)-(4-(7-bromobenzo[d]oxazol-2-yl)-6,7-dihydro-1H-imidazo[4,5-c]pyridin-5(4H)-yl)(4-(difluoromethyl)-2-(2-hydroxypropan-2-yl)oxazol-5-yl)methanone]

Source: US20250171437A1 (Agios Pharmaceuticals,Inc., priority 2022, published 2025)
